Values after ≈ are worked out from the molar mass of the structure shown.
Columns and labels:
Assay type in all cases: physicochemical
[1] = DSC enthalpy of fusion and percentage residual crystallinity of co-ground compositions; conditions: enthalpy of fusion of the active substance as such, before co-grinding
Excerpt: The compositions obtained by operating according to the examples reported below have been characterised by DSC and from the enthalpy of fusion the percentage residual crystallinity has been calculated.

[2] = Percentage of active substance released under sink conditions (dissolution speed)
Procedure: In FIGS. 5 and 6 are reported respectively the dissolution speed curves under sink conditions (% age of active substance released against time) and the to solubilisation kinetics curves under non sink conditions (concentration of active substance against time) of a hydrophobic drug (DHEA)/hydrophilic carrier combination. The dissolution speed of the DHEA from the ternary composition is markedly greater with respect to that of the DHEA as such, reaching 70% release after 15 minutes and 90% after 60 minutes, against the respective 9% and 20% for DHEA as such. Regarding the kinetics, in the ternary composition, the oversaturation reached by DHEA, which reaches a concentration of over 80 μg/ml in 2 minutes against around 50 μg/ml of DHEA as such, is evident.
(§1) Furthermore, the percentage of active substance released under sink conditions and the solubilisation kinetics under non sink conditions have been determined.

[3] = Solubilisation kinetics under non sink conditions; conditions: thermodynamic from solid, in 2 minutes, read-out: concentration of DHEA reached (solubilisation kinetics, oversaturation)
Procedure: The dissolution speed of the DHEA from the ternary composition is markedly greater with respect to that of the DHEA as such, reaching 70% release after 15 minutes and 90% after 60 minutes, against the respective 9% and 20% for DHEA as such. Regarding the kinetics, in the ternary composition, the oversaturation reached by DHEA, which reaches a concentration of over 80 μg/ml in 2 minutes against around 50 μg/ml of DHEA as such, is evident.
as §1

SMILES | Active Substance Enthalpy [1] [J/g] | percentage of active substance (DHEA) released ([2]; after 15 minutes) [%] | percentage of active substance (DHEA) released ([2]; after 60 minutes) [%] | solubility kinetic at 2 min [3] [µg/mL]
C[C@]12CC[C@H](O)CC1=CC[C@@H]1[C@@H]2CC[C@]2(C)C(=O)CC[C@@H]12 [DHEA, dehydroepiandrosterone] | 100 | 9 | 20 | ~50 (≈ 173 µM)
CC(=O)OCC(=O)[C@@]1(O)CC[C@H]2[C@@H]3CCC4=CC(=O)CC[C@]4(C)[C@H]3[C@@H](O)C[C@@]21C [HCA, hydrocortisone acetate] | 117.9 | – | – | –
Oc1ccc(C=Cc2cc(O)cc(O)c2)cc1 [Resveratrol, resveratrol] | 317.7 | – | – | –
Cc1cc(O)c(C2CC3CCC2(C)C3(C)C)cc1C (centres unmarked) [Xibornol, xibornol] | 92.8 | – | – | –
CC(=O)N[C@@H](CS)C(=O)O [NAC, N-acetyl cystein] | 192.9 | – | – | –

Source: patent US20050255163A1, “Co-grinding process for the preparation of a ternary composition” (priority 2002, published 2005)
